Where two headings read alike, the source gives them in different places.
Experiments:
ER = test: Assay system I: transcriptional activation of an ER-dependent reporter gene; type: cell-based; conditions: in vitro
Protocol: The problem of the invention is achieved by a method of an in vitro screening for a test substance (ligand) involving selecting and detecting by means of at least two assay systems comprising the following steps: • (i) in a first cellular or tissue assay system selecting the ligand having transcriptional activity • which is mediated by activation of ER and which is measured by detecting potency in the cellular or tissue assay system comprising ER and an ER-driven reporter gene, • whereby, in the first assay system, the ligand activates the potency with an EC50(ER) (half-maximally effective ligand concentration) lower than or equal to 10 nmol/l, and • detecting the activation of the transcription; and • (ii) in a second cell-free or enzymatic assay system, selecting the physical-chemical interaction (recruitment) of SRC-1 and fragments thereof, and of the ER • which is measured by detecting the potency of this interaction in the cell-free or enzymatic system • wherein the ligand activates the ER and induces interaction with the co-present SRC-1 and fragments thereof in the second assay system with a EC50(ER+SRC) higher than or equal to 100 nmol/l, and detecting the potency of the physical-chemical interaction of SRC-1 and fragments thereof and of ER.
The assay employed in this Example only used compounds which are characterized by estrogenic activity. The assays for finding the estrogenic compounds have already been developed and published. These assays are standard assays well known to the person skilled in the art.
(§1) Using the assay described in Example 2, we selected the compound 3′ 15β-dihydrocycloprop[14,15]estra-1,3,5(10),8-tetraene-3,17α-diol [iii] for further examination of its neurotropic and systemic estrogenic effects.

ER and SRC-1 protein = test: Assay system II: SRC-1 recruitment by the activated ER (fluorescence resonance energy transfer, cell-free); type: biochemical; conditions: for Assay system II: First signs of significant interaction between ER and SRC-1 protein (dose in M): 175 ng his-tagged SRC-1 per well, significant = more than 2 times standard deviation from baseline; for Ratio between values measured in assay systems II and I: assay II dose / assay I EC50
Description: Recruitment: Recruitment of SRC-1 relates to the comparison of the degrees of association by protein-protein interaction between co-present ER and SRC-1 in the absence or presence of an ER-agonist. Numerically, recruitment is defined by the molar concentration of ER-agonist which is required for the occurrence of a significant (more than 2 times standard deviation from baseline) protein-protein interaction between co-expressed ER and SRC-1 in a test system. The baseline is defined by the interaction measured in an identical test system to which no […] has been added.
The assay used in the present Example for investigating the recruitment of ER and co-activator SRC-1 is performed according to the publication of Gauchao ZHOH et al. (1998) Nuclear receptors have distinct affinities for co-activators: Characterization by fluorescence resonance energy transfer, Mol Endo, Vol 12, pp 1594–1604 especially on Page 1602. Furthermore, the assaysystem is described in WO/18124 from Cummings et al. Instead of the euriopium cryptate, mentioned in the International Application, europium chelate—100 ng of euriopium labeled anti-GST-antibody per well—is used in the assays. The labeled antibody was delivered from Wallac, now Perkin Elmer Lifesciences. (Eu-W1024 labeled anti-GST-Antibody for Lance Assays, Part Number AD 0065)
The SRC-1 is used at a concentration of 175 ng his-tagged SRC-1 per well. SRC-1 is present in every well of this assay system.

ERα = molecular target: T1, ERα (Homo sapiens, UniProt P03372); test: Relative binding affinity to ERα; conditions: relative to 17β-estradiol
T1 sequence (P03372 1-595): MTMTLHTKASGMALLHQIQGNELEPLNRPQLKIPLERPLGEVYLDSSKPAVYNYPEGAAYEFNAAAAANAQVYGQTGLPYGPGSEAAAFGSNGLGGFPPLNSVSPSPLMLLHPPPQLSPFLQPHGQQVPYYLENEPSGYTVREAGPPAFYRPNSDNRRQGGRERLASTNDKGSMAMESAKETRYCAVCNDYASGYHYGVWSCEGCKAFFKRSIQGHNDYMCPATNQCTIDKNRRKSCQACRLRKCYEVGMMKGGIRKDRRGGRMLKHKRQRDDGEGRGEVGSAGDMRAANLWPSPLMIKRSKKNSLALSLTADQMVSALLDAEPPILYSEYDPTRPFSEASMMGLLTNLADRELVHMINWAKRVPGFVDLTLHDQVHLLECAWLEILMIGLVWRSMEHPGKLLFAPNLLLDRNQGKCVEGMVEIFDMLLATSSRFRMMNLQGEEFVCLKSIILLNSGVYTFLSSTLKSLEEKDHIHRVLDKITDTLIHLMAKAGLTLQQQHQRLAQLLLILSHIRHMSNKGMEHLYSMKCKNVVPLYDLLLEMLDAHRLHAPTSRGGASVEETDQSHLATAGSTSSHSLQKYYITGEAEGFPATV
Description: as §1

ERβ = ERβ (Homo sapiens, UniProt Q92731); test: Relative binding affinity to ERβ; conditions: relative to 17β-estradiol
Sequence of ERβ (Q92731 whole entry, species assumed): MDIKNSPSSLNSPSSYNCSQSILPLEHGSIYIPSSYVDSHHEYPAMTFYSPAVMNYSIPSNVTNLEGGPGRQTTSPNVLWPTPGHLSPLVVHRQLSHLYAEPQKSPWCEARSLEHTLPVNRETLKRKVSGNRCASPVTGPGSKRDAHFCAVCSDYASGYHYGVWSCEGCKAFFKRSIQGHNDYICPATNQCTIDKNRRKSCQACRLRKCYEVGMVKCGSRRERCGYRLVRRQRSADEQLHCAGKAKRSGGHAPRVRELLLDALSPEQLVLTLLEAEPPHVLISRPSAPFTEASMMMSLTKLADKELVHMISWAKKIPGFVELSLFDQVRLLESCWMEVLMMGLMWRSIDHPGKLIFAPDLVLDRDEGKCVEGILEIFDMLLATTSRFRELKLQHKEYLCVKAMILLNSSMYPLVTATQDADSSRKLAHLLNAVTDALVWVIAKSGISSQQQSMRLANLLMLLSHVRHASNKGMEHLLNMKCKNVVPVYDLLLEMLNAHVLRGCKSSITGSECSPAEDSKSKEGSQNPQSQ
Description: as §1

[1] = system: peripheral estrogen-target organs (uterus, thymus, adrenal glands); test: Morphometric assessment of estrogen-sensitive organs in ovariectomized female rats; type: in vivo, rat; conditions: subcutaneous
Protocol: (§2) Different doses of the compound of interest and the reference 17β-estradiol were administered subcutaneously in ovariectomized female rats for seven consecutive days. The effect of the compounds on the cognitive performance of experimental animals was evaluated by monitoring the acquisition, consolidation and retrieval of active avoidance behavior. Upon sacrifice, morphometric assessment was made of estrogen-sensitive organs (uterus, thymus, adrenal glands). Neurochemical effects were assessed by quantification of the transcription of ER-induced CNS-specific genes in different brain areas, endowed with different amounts of SRC-1.

bcl-2 = test: Transcription of estrogen-regulated gene bcl-2 in cerebral cortex of ovariectomized female rats; type: in vivo, rat; conditions: subcutaneous, seven days, equal dose comparison with 17β-estradiol
Protocol: as §2

oxytocin receptors = test: Estrogen-dependent expression of oxytocin receptors in ventromedial nucleus of ovariectomized female rats; type: in vivo, rat; conditions: subcutaneous, seven days, compared with 17β-estradiol
Protocol: as §2

[2] = system: ovariectomized female rats; test: Active avoidance behavior (cognitive performance) in ovariectomized female rats; type: in vivo, rat; conditions: subcutaneous, seven days, compared with 17β-estradiol
Protocol: as §2

[3] = read-out: Assay system I: Transcriptional activation of an ER-dependent reporter gene (EC50 in M) (converted)

Structure (SMILES)	EC50 (ER; read-out: Assay system I: Transcriptional activation of an ER-dependent reporter gene (EC50 in M)) [nM]	Assay system II: First signs of significant interaction between ER and SRC-1 protein (dose in M) (ER and SRC-1 protein)	Ratio between values measured in assay systems II and I (ER and SRC-1 protein)	EC50 (ER; listed as 17β-estradiol, read-out: Assay system I: Transcriptional activation of an ER-dependent reporter gene (EC50 in M) (converted)) [nM]	EC50 (ER; [3]) [nM]	recruitment of SRC-1 upon ER binding (in words) (ER and SRC-1 protein)	relative affinity to ERα, of that of 17β-estradiol (ERα)	relative affinity to ERβ, of that of 17β-estradiol (ERβ)	capacity to induce estrogen-like effects in peripheral estrogen-target organs (uterus, thymus, adrenal glands) ([1]; seven consecutive days, compared with 17β-estradiol)	estrogen-dependent changes in peripheral estrogen-sensitive organs at behaviorally effective treatment ([1]; seven days)	stimulation of transcription of antiapoptotic estrogen-regulated gene bcl-2 in the cerebral cortex (bcl-2)	induction of estrogen-dependent expression of oxytocin receptors in the ventromedial nucleus (VMN) (oxytocin receptors)	behavioral (cognitive) effect, retention of newly acquired active avoidance behavior [2]
CC12CCC3=C(CCc4cc(O)ccc43)C13CC3CC2O (stereo not drawn) [[iii], 3′,15β-dihydrocycloprop[14,15]-estra-1,3,5(10),8-tetraene-3,17α-diol]	–	10^−7 M	100.0	–	1	–	25–30 per cent	25–30 per cent	several times lower than that of the natural estrogen 17β-estradiol	not associated with estrogen-dependent changes in peripheral estrogen-sensitive organs	to a higher degree than does 17β-estradiol given at an equal dose	to a significantly lower degree than 17β-estradiol	indistinguishable from that of 17β-estradiol
C=CCC1CC(O)C2(C)CCC3c4ccc(O)cc4CCC3C12 (stereo not drawn) [[iv], 15β-allyl-estra-1,3,5,(10)-triene-3,17β-diol]	–	10^−7 M	25.0	–	4	–	–	–	–	–	–	–	–
CCCC1CC(O)C2(C)CCC3c4ccc(O)cc4CCC3C12 (stereo not drawn) [[v], 15β-propyl-estra-1,3,5,(10)-triene-3,17β-diol]	–	10^−7 M	10.0	–	10	–	–	–	–	–	–	–	–

— patent US7166438B2, “In Vitro screening for ligands of the estrogen receptor” (priority 2001, dated 2007)
